Laboratory results reported in US20240043531A1, “ANTI-CD47 MONOCLONAL ANTIBODY AND USE THEREOF” (Akeso Biopharma, Inc., priority 2021, published 2024).

How the values were obtained:
Raji cells = experiment: ADCP: phagocytosis of Raji cells by HPMMs, combination with obinutuzumab; format: cell-based, human; conditions: HPMMs effector, Raji target cells, 37° C. 2 h; FIG. 8
Experimental: PBMCs (prepared by Akeso Biopharma, Inc., Lot No: 20201126-G) were thawed and incubated with 1640 complete medium+10% FBS (Excell bio, Cat. No: FSP500, Lot No: 11I025) overnight. The next day, the medium was changed to 1640 complete medium+2% FBS, and the cells were incubated with the medium for 2 h. The supernatant was removed, and the cells were washed twice with PBS and incubated in an incubator (90% 1640+10% FBS+M-CSF-100 ng/mL) to induce […] (HPMMs). The medium was exchanged and the treatment was given on days 3 and 5. The experiment was performed on day 7 of induction.
Raji cells (purchased from ATCC) were conventionally collected and washed once with PBS. CFSE was diluted to 2.5 μM with PBS. The cells were resuspended in a proper amount of the diluted CFSE to a staining density of 1×10^7 cells/mL and incubated in an incubator for 20 min. 6 mL of 1640 complete medium (containing 10% FBS) was added to stop staining. The cells were centrifuged at 170×g for 5 min, and the supernatant was discarded. 1 mL of 1640 complete medium was added, and the cells were incubated in an incubator for 10 min with the cell density adjusted to 3×10^6 cells/mL. […] 200 μL of 1% PBSA was added to each tube for resuspension, and the cells were transferred to a flow cytometry tube and detected.

[1] = system: human Burkitt's lymphoma Raji-PDL1 cells; experiment: Immune cell activation: PBMCs co-cultured with Raji-PDL1 cells, cytokine ELISA; format: cell-based; conditions: SEB-activated PBMCs + MMC-treated Raji-PDL1 cells, 3 days; FIG. 3
[2] = CT26-hCD47 tumor model, tolerability and body weight; format: in vivo; conditions: 6F7H1L1(hG4) 5 mg/kg, cadonilimab 0.5 mg/kg, i.p.; FIG. 10
Excerpt: (§1) In order to determine the tumor inhibitory activity in vivo of 6F7H1L1(hG4) antibody in combination with anti-PD-1/anti-CTLA-4 bispecific antibody cadonilimab, female BALB/c-hPD1I/hSIRPα mice aged 6.43-8.43 weeks (purchased from GemPharmatech Co., Ltd.) were grafted subcutaneously with CT26-hCD47 cells (mouse colon cancer cells, purchased from GemPharmatech Co., Ltd.). When the mean tumor volume reached 80-120 mm^3, the mice were randomized into 4 groups of 6 by tumor volume. The day of grouping was defined as D0, and dosing was started on the day of grouping D0. The regimen of the combination therapy group is as follows: the drugs were formulated separately and administered sequentially (no certain order or time interval was required, and one treatment should be given after the completed administration of the other). After the administration, the length and width of tumors in each group were measured, and the tumor volume was calculated. The data were subjected to an independent sample T-test, SPSS 17.0 *P<0.05, **P<0.01.

[3] = system: CT26-hCD47 cells (mouse colon cancer cells); experiment: CT26-hCD47 tumor model in BALB/c-hPD1/hSIRPα mice, tumor volume; format: in vivo; conditions: 6F7H1L1(hG4) 5 mg/kg, cadonilimab 0.5 mg/kg, intraperitoneally twice per week for 4 weeks, 7 doses; vs isotype control hIgG4; FIG. 9
Excerpt: as §1

[4] = system: hematological malignancies and solid tumors; conditions: Chao M P et al., 2016; cited from earlier work
[5] = system: acute myelocytic leukemia (AML) HL-60 cells; experiment: ADCP: phagocytosis of HL-60 cells by HPMMs, combination with azacitidine; format: cell-based, human; conditions: HPMMs effector, HL-60 target cells treated with azacitidine 3 μM or 1 μM for 24 h; antibodies 10 μg/mL and 1 μg/mL; FIG. 2
Excerpt: Materials: Azacitidine (purchased from Baxter Oncology GmbH); Hu5F9-G4 (supplied by Akeso Biopharma, Inc.); Raji cells (Chinese Academy of Sciences Shanghai Branch); HL-60 cells (ATCC); RPMI 1640 (Gibco, Cat. No: 22400-105); pancreatin (0.25% Typsin-EDTA (1×)) (Gibco, Cat. No: 25200072); fetal bovine serum (FBS; Excell bio, Cat. No: FSP500); fluorescent dye […] diacetatesuccinimidyl ester (CFSE; Biolegend, Cat. No: 423801); recombinant human macrophage colony-stimulating factor (human M-CSF; PeproTech, Cat. No: 300-25); APC anti-human CD11c antibody (Biolegend, Cat. No: 301614); isotype control (human IgG4; supplied by Akeso Biopharma, Inc.); rituximab (Roche); BSA (Sigma, Cat. No: V900933-1KG); Ficoll paque plus (GE, Cat. No: 17-1440-02). Human peripheral monocyte-derived macrophages (HPMMs) were prepared by inducing PBMCs. Frozen PBMCs were conventionally thawed and incubated in an incubator overnight. […]
Procedures: HL-60 cells were conventionally collected and plated in a 6-well plate at 4×10^5 cells/2 mL of 1640 complete medium per well. […] The next day, the treated and blank HL-60 cells were collected, centrifuged at 170×g for 5 min, resuspended and counted. Then the cells were analyzed for viability and washed once with PBS. […]

obinutuzumab: anti-human CD20 antibody [reference compound]
phagocytic index (ADCP) (Raji cells): significantly higher than those of the blank control and the isotype controls (human IgG4 and human IgG1)

cadonilimab: anti-PD-1/CTLA-4 bispecific antibody; heavy chain SEQ ID NO: 78, light chain SEQ ID NO: 80 [reference compound]
secretion of IFN-γ in PBMCs [1]: can significantly stimulate the secretion of IFN-γ
tolerability in tumor-bearing mice [2]: well tolerated
inhibition of tumor growth (tumor volume) [3]: can effectively inhibit the growth of tumors in mice

Hu5F9-G4: anti-CD47 monoclonal antibody drug, positive control; heavy chain SEQ ID NO: 85, light chain SEQ ID NO: 86
inhibition of growth and metastasis of tumors in preclinical studies [4]: effectively inhibits the growth and metastasis of hematological malignancies and solid tumors
phagocytic index (ADCP) [5]: significantly higher than those of the blank control and the isotype control (human IgG4)
